How the values were obtained:
Assay in all cases: 6-day cell proliferation, nuclei count
Assay type in all cases: cell-based
RMUG-S cells = conditions: Homo sapiens, 144 h
Source text: (§1) The FU-97 (Cat #JCRB1074) human gastric cancer cell line and the Kuramochi (Cat #JCRB0098) and RMUG-S(Cat #IFO50320) human ovarian cancer cell lines were obtained from the National Institutes of Biomedical Innovation, Health and Nutrition's Japanese Collection of Research Bioresources (JCRB) (Ibaraki City, Osaka, Japan). The HCC1419 (Cat #CRL-2326) and HCC1428 (Cat #CRL-2327) human breast cancer cell lines and the NCI-H1650 (Cat #CRL-5883) and NCI-H1792 (Cat #CRL-5895) non-small cell lung cancer cell lines were obtained from ATCC (Manassas, Virginia, USA). The human gastric cancer cell lines GCIY (Cat #RCB0555) and SNU601 (Cat #CSC-C9686L) were obtained from the Riken Bioresource Research Center (Tsukuba, Ibaraki, Japan) and Creative Bioarray (Shirley, NY, USA), respectively. The T025OV ovarian cancer organoid model was developed from a patient-derived xenograft (PDX) model, which was developed from primary serous ovarian carcinoma cells obtained from Discovery Life Sciences (Huntsville, AL, USA, SN #350627149). T026OV organoids were developed from PDX cells obtained from The Jackson Laboratory (Bar Harbor, ME, USA, Cat #TM00335).
(§2) All cell lines were grown in an incubator at 37° C. in 5% CO2. The Kuramochi and SNU-601 cells were cultured in RPMI+glutaMAX™ (Thermo Fisher Scientific, Waltham, MA, USA Cat #74200120) containing 1% penicillin/streptomycin (pen/strep) (Thermo Fisher Scientific Cat #15070-063), and 10% fetal bovine serum (FBS) (Thermo Fisher Scientific Cat #A31605-02). The HCC1419, HCC1428, NCI-H1650, and NCI-H1792 cells were cultured in ATCC-modified RPMI+glutaMAX™ (Thermo Fisher Scientific Cat #A10491-01) containing 1% pen/strep and 10% FBS. The FU-97 cells were cultured in DMEM+glutaMAX™ (Thermo Fisher Scientific, Waltham, MA, USA Cat #10566-016) containing 1% pen/strep, 10% FBS and 0.01 mg/mL bovine insulin (MilliporeSigma, Burlington, MA, USA Cat #10516-5ML). The GCIY cells were cultured in MEM (Thermo Fisher Scientific Cat #11095-080) containing 1% pen/strep and 15% FBS. The RMUG-S cells were cultured in Ham's F12 medium+glutaMAX™ (Thermo Fisher Scientific Cat #31765-035) containing 10% FBS and 1% pen/strep.
(§3) Compound 1 IC50 values for inhibition of cell proliferation were determined by imaging and counting the number of nuclei after compound treatment. Cells were harvested with trypsin (Thermo Fisher Scientific, Cat #25200-056) and plated in black-walled, clear bottom 96-well Corning costar 3603 plates (VWR, Radnor, PA, USA Cat #29444-008) at 7500 cells/well (HCC1428 and HCC1419), 5000 cells/well (Kuramochi, FU-97, SNU-601), 2500 cells/well (RMUG-S, GCIY, NCI-H1650) or 1000 cells/well (NCI-H1792) in 100 μL normal growth media and incubated overnight at 37° C., 5% CO2. The following day, a 1000× Compound 1 concentration curve was prepared by serial dilution of Compound 1 in 100% DMSO. The 1000× Compound 1 concentration curve was diluted 1:200 into growth media to generate a 5× concentration curve in 0.5% DMSO/growth medium before addition of 25 μL of the 5× compound to the wells. Control wells received 25 μL of 0.5% DMSO/media alone (negative control wells) or 50 μM Compound 1 (positive controls; 10 μM Compound 1 final). The plate was mixed gently on a plate shaker, covered with Breathe-Easy biofilm (Diversified Biotech, Cat #BEM-1), and incubated at 37° C., 5% CO2 for 6 days. Following the incubation period, a 125 μL fixation/permeabilization solution containing 8% paraformaldehyde (Fisher Scientific, Cat #50-980-495, part of Thermo Fisher Scientific) and 0.2% Triton X-100 (Thermo Fisher Scientific, Cat #327372500) in PBS was added to each well of the plate, and the plates were incubated at room temperature for 20 min. The solution was aspirated and cells washed by the addition of 100 μL PBS. After aspiration of the PBS, nuclei were stained by the addition of 100 μL 1 μg/mL DAPI (Thermo Fisher Cat #62248) in PBS. […]

NCI-H1792 cells = conditions: Homo sapiens
Source text: as §1, §2, §3

GCIY cells = conditions: Homo sapiens, 144 h
Source text: as §1, §2, §3

HCC1419 cells = conditions: Homo sapiens
Source text: as §1, §2, §3

NCI-H1650 cells = conditions: Homo sapiens
Source text: as §1, §2, §3

HCC1428 cells = conditions: Homo sapiens
Source text: as §1, §2, §3

FU-97 cells = conditions: Homo sapiens, Fu97, 144 h
Source text: as §1, §2, §3

SNU-601 cells = conditions: Homo sapiens
Source text: as §1, §2, §3

Kuramochi cells = conditions: Homo sapiens, 144 h
Source text: as §1, §2, §3

[1] = read-out: IC50 inhibition of proliferation

[2H]C([2H])(c1cnn(C)c1)N1C(=O)c2cc(S(=O)(=O)NC3(C)CC3)ccc2N2C1=NC[C@H]2C [Compound 1, (R)-1-methyl-4-((1-methyl-1H-pyrazol-4-yl)methyl-d2)-N-(1-methylcyclopropyl)-5-oxo-1,2,4,5-tetrahydroimidazo[1,2-a]quinazoline-7-sulfonamide]
IC50 (RMUG-S cells; [1]): 75 nM | IC90 (RMUG-S cells; RMUG-S, 6 days, geometric mean, read-out: IC90 inhibition of proliferation): 208 nM | IC90 (NCI-H1792 cells; 144 h, NCI-H1792, 6 days, geometric mean, read-out: IC90 inhibition of proliferation): 4280 nM | IC50 (NCI-H1792 cells; NCI-H1792, 144 h, read-out: IC50 inhibition of proliferation): 1150 nM | IC90 (GCIY cells; 6 days, geometric mean, read-out: IC90 inhibition of proliferation): 125 nM | IC50 (GCIY cells; [1]): 28 nM | IC90 (HCC1419 cells; 144 h, HCC1419, 6 days, geometric mean, read-out: IC90 inhibition of proliferation): 206 nM | IC50 (HCC1419 cells; HCC1419, 144 h, read-out: IC50 inhibition of proliferation): 50 nM | IC90 (NCI-H1650 cells; 144 h, NCI-H1650, 6 days, geometric mean, read-out: IC90 inhibition of proliferation): 320 nM | IC50 (NCI-H1650 cells; NCI-H1650, 144 h, read-out: IC50 inhibition of proliferation): 100 nM | IC90 (HCC1428 cells; 144 h, HCC1428, 6 days, geometric mean, read-out: IC90 inhibition of proliferation): 363 nM | IC50 (HCC1428 cells; HCC1428, 144 h, read-out: IC50 inhibition of proliferation): 131 nM | IC50 (FU-97 cells; [1]): 178 nM | IC90 (FU-97 cells; FU-97, 6 days, geometric mean, read-out: IC90 inhibition of proliferation): 833 nM | IC90 (SNU-601 cells; 144 h, SNU-601, 6 days, geometric mean, read-out: IC90 inhibition of proliferation): 539 nM | IC50 (SNU-601 cells; SNU-601, 144 h, read-out: IC50 inhibition of proliferation): 149 nM | IC50 (Kuramochi cells; [1]): 46 nM | IC90 (Kuramochi cells; Kuramochi, 6 days, geometric mean, read-out: IC90 inhibition of proliferation): 133 nM
